The text below walks through data of patent US20260193245A1, “CD93 INHIBITORS” (UNIVERSITÄT BERN, priority 2022, published 2026).

One assay concerns the target T1, CD93 (Mus musculus, UniProt O89103).
T1 construct: endogenous in cells; host or cells: FACS-purified GFP+ lin- Sca-1- c-kit(high) CD34+ Fcγ+ GMPs from MLL-AF9 AML mice (BL6; CD93-/- cells as control)
T1 sequence (O89103 23-644): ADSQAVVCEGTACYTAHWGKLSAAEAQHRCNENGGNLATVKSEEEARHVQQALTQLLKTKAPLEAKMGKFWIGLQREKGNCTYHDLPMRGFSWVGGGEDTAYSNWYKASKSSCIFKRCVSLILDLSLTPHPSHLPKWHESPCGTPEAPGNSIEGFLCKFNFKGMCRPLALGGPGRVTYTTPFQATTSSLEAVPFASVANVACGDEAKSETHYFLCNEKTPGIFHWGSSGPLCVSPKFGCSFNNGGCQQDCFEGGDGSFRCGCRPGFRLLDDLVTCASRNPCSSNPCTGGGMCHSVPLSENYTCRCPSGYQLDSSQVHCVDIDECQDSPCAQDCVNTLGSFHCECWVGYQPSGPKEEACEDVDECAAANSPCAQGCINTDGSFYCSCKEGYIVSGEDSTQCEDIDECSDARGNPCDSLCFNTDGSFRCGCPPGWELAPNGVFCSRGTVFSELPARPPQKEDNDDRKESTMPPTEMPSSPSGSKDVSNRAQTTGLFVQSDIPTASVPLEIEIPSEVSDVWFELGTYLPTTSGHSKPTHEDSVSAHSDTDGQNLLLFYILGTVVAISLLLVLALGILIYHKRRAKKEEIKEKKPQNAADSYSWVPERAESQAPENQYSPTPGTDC
The experiment in a line: Mouse MLL-AF9 compound screening: colony forming capacity of BL6 or CD93-/- GMPs (leukemia stem cells) from AML mice. It is filed as cell-based. The settings on record: GMPs from AML mice cultured overnight with 10 uM and 1 uM compound; colonies counted after 7 days; FIG. 1 and FIG. 2. The procedure:
The colony formation (% of control) is shown on the Y-axis. […] Compounds showing inhibition of CD93, show no or a very low difference in colony formation of CD93−/− and at the same time a low percentage of colony formation of BL6.
For testing the small molecule compounds targeting CD93 on GMPs (leukemia stem cells) colony forming capacity, 10^3 FACS-purified GFP+lin-Sca-1-c-kithighCD34+Fcγ+ GMPs from BL6 or CD93−/− transduced AML mice were cultured overnight in 96-well U-bottom plates (NeoLab) in RPMI medium supplemented with 10% FCS, 1% L-glutamine, 1% penicillin/streptomycin, 100 ng/ml recombinant mouse (rm)-SCF (Miltenyi) and 20 ng/ml rm-TPO (ProSpec), in the presence or absence of 10 uM and 1 uM compound in technical triplicates. Compounds were dissolved in DMSO. The next day, cells were plated in semi-solid methylcellulose in the absence of any compound. Number of colonies was assessed by inverted light microscopy after 7 days.
In this assay, the semi-solid Media used was 1.27% Methylcellulose (1500cp, Sigma), supplemented with 15% FCS, 20% BIT (50 mg/ml BSA in IMDM, 1.44 U/ml rh-insulin [Actrapid; Novo Nordisk], and 250 ng/ml human holo transferrin [Prospec]), 100 μM 2-mercaptoethanol, 100 U/ml penicillin, 100 μg/ml streptomycin, 2 mM L-glutamine, and 50 ng/ml rm-SCF (Miltneyi), 10 ng/ml rm-IL-3 (Miltenyi), 10 ng/ml rm-IL-6 (Miltenyi), and 50 ng/ml rm-Flt3-ligand (ProSpec).

For a further assay, the system named is BL6 leukemia stem cells. The conditions noted are these: murine CML model, BL6 and CD93-/- mice; Riether et al. 2021; cited from earlier work.
For assay [1], the system named is human CML leukemia stem cells. The conditions noted are these: Riether et al. 2021; cited from earlier work.

The structures appear in SMILES notation.

On to `O=C(c1csc(-c2ccccc2)n1)N1CCCN(C2CC2)CC1` [Compound 21560], for which the “inhibition profile of CD93 (colony formation, % of control, BL6 vs CD93-/- GMPs)” value at CD93 is recorded as “good inhibition profiles of CD93”.

As to `O=C(c1nc2ccccc2s1)N1CCCN(C2CC2)CC1` [Compound 22393], the “inhibition profile of CD93 (colony formation, % of control, BL6 vs CD93-/- GMPs)” value against CD93 is “good inhibition profiles of CD93”.

With `COc1ccccc1-c1nc(C(=O)N2CCCN(C3CC3)CC2)cs1` [Compound 22394], the “inhibition profile of CD93 (colony formation, % of control, BL6 vs CD93-/- GMPs)” value against CD93 is recorded as “good inhibition profiles of CD93”.

With `O=C(c1ccn(-c2ccccc2)n1)N1CCCN(C2CC2)CC1` [Compound 22742], on CD93, the “inhibition profile of CD93 (colony formation, % of control, BL6 vs CD93-/- GMPs)” value was “good inhibition profiles of CD93”.

On to `CN(C)CCN(C)C(=O)c1csc(-c2ccccc2)n1` [Compound 22815], for which the “inhibition profile of CD93 (colony formation, % of control, BL6 vs CD93-/- GMPs)” value at CD93 is listed as “good inhibition profiles of CD93”.

On to `O=C(c1csc(-c2ccccc2)n1)N1CCN2CCC1C2` (centres unmarked) [Compound 22817], for which the “inhibition profile of CD93 (colony formation, % of control, BL6 vs CD93-/- GMPs)” value on CD93 was “good inhibition profiles of CD93”.

Regarding `CCN(CC)CCNC(=O)c1cc(Cl)c(N)cc1OC` [metoclopramide], in the assay with BL6 leukemia stem cells, the “colony formation of BL6 leukemia stem cells” value is “reduced colony formation of BL6 leukemia stem cells”. Besides, the “leukemia stem cell numbers and function” value in assay [1] is “diminished leukemia stem cell numbers and function”.
